Experimental data taken from patent US20010002251A1, “Intracellular sensitizers for sonodynamic therapy” (Pharmacyclics, Inc., priority 1998, published 2001).

Legend:
Colon 26 tumor cells = test: Experimental kidney tumor assay of sonodynamic sensitizing activity; type: in vivo, mouse; details: 1.0 mg/kg i.v., ultrasound 24 hours later, 5 minutes, 0.5 and 1 MHz, 8 W/cm^2; sacrifice after 7 days
Description: In vivo activity for sonodynamic therapy is determined, e.g., by post-mortum histological examination of tumor tissue by hematoxylin and eosin, as described in Yumita et al., Cancer Letters 112 (1997). The antitumor effects of sonodynamic therapy are evaluated by implanting tumor cells into one kidney in a mouse (the other kidney remaining untreatd and serving as a control). Approximately 24 hours after intravenous administration of a sonodynamic sensitizer to be tested, the mouse is anesthesized and the tumorous kidney exteriorized. The position and the angle of the mouse are adjusted to facilitate ultrasound ultrasound penetration of the entire kidney, with the tumor at the focal spot. Ultrasound is delivered in continuous waves by a focused array transducer, the kidney is returned to the abdominal cavity and the abdomen is closed. After 7 days the mouse is sacrificed and the kidneys stained with hematoxylin and eosin for histologic examination. The tumor bearing and control kidneys are compared.
This procedure is a modification of a procedure initially described by Yumita et al., Cancer Letters 112 (1997).
Colon 26 tumor cells are implanted into one kidney in a male CDF mouse (the other kidney remaining untreated and serving as a control). After 14 days, 1.0 mg/kg of a texaphyrin is administered by intravenous injection. 24 Hours later, the mouse is anesthetized and the tumorous kidney exteriorized. The position and the angle of the mouse are adjusted to facilitate ultrasound ultrasound penetration of the entire kidney, with the tumor at the focal spot. Ultrasound is delivered in continuous waves by a focused array transducer. The tumor is exposed to focused ultrasound for 5 minutes in a progressive wave mode, at a frequency of 0.5 MHz for the first wave and 1 MHz for the second wave, at an intensity of 8 W/cm^2 followed by the second-harmonic superimposition of ultrasound at the same intensity, for a total exposure of 5 minutes. The kidney is returned to the abdominal cavity and the abdomen is closed. […]

[1] = tested on: murine leukemia L1210 cells; test: Amino acid (cytoleucine) transport after ultrasound in L1210 cells; type: cell-based; details: 6 μM sensitizer, 15 min loading at 37° C., only intracellular texaphyrin; ultrasound 1.94 MHz, 3.9 W/cm^2
Description: (§1) The effect of low-level, non-thermal ultrasound on the murine leukemia L1210 cell line in culture, measuring ultrasound-induced cytotoxicity is determined by a modification of the procedure initially described by Kessel et al., 1994. Int. J. Radiat. Biol., 66 (1994). Sonodynamic therapy with and without a texaphyrin and with and without low intensity irradiation of ultrasound. A murine 1210 cell line was used, The cytotoxicity of low-intensity ultrasound on murine leukemia L1210 cells is associated with cell fragmentation, and was detected by measuring the inhibition of the active transport of a non-metabolized amino acid (cytoleucine) and by a viability assay.
(§2) Cell Culture Systems—Murine leukemia L1210 cells were grown in Fischer's medium (GIBCO, Grand Island, N.Y.) supplemented with glutamine, 10% horse serum and gentamicin. All operations were carried out at 37° C. […]
Amino Acid Transport—The effect of ultrasound on the capacity of L1210 cells for concentrative accumulation of the non-metabolized amino-acid cytoleucine was assesed as a probe for damage to membrane […] systems. […] After 15 minutes, the cells were collected by centrifugation, washed with isotonic NaCl and cell radioactivity determined by liquid scintillation counting. […]

[2] = tested on: murine leukemia L1210 cells; test: Cell fragmentation after ultrasound (Coulter particle size distribution); type: cell-based; details: 6 μM sensitizer, 15 min loading at 37° C., only intracellular texaphyrin; ultrasound 1.94 MHz, 3.9 W/cm^2
Description: as §1, §2
(§3) Fragmentation and Viability Studies—Cell counts and the particle size distribution were determined with a Coulter Electronics ZM Particle Analyzer and Model 256 Channelyzer. The Channelyzer determines the mean particle volume; intact cells were detected in channels 80-110. […] Cell counts were again determined after incubation for sufficient time to allow the number of control (untreated) cells to reach 20,000/ml, approximately 5 doublings.

[3] = tested on: murine leukemia L1210 cells; test: Viability (growth) assay after ultrasound; type: cell-based; details: for Viability: 6 μM sensitizer, 15 min loading at 37° C., only intracellular texaphyrin, ultrasound 1.94 MHz, 3.9 W/cm^2; for potentiation of the cytotoxic effect of ultrasound: cells previously exposed to 6 μM, ultrasound at 3.9 W/cm
Description: as §1
Cell Culture Systems—Murine leukemia L1210 cells were grown in Fischer's medium (GIBCO, Grand Island, N.Y.) supplemented with glutamine, 10% horse serum and gentamicin. All operations were carried out at 37° C. Exponentially growing cells were collected by centrifugation, resuspended (5×10^6 cells/ml) in serum-free Fischer's medium buffered to pH 7.0 with 20 mM HEPES.
Sensitizers—Lutetium Texaphyrin (Lu-Tex or PCI-0123) and Gadolinium Texaphyrin (Gd-Tex or PCI-0120) were dissolved in water at a concentration of 6 μM.
Test Groups—Four groups of cells were established: Control A (no sensitizer and no ultrasound), Control B (no sensitizer, with ultrasound); 6 μM Lu-Tex with ultrasound, and 6 μM Gd-Tex with ultrasound. A small volume of the respective sensitizers were added to the Lu-Tex and Gd-Tex groups followed by a loading incubation of 15 minutes at 37° C. The cells were then suspended in fresh (serum free) medium, such that only intracellular texaphyrin remained.
Ultrasound—Exposure of cell suspensions (except Control A) to ultrasound was carried out in 2.5 cm diameter petri dishes in a bath of degassed water. A 2.54-cm-diameter transducer (Valpey-Fisher) was driven by a power amplifier (ENI 240L) with a continuous wave 1.94 MHz sinusoidal signal source (Wavetek Model 23). The acoustic field was calibrated with a Marconi PVDF membrane hydrophone in a free field condition 3.0 cm from the surface of the transducer which is also the distance from the face to the exposure dish. The acoustic intensity, expressed in terms of the spatial peak temporal average (SPTA), was 3.9 W/cm^2.
as §3, with “80-110. Smaler particles represent debris resulting from cell fragmentation.” for “80-110.”

[4] = Maximum tolerated dose study; type: in vivo; details: determined in one study; intravenous injection
Description: For example, Lutetium Texaphyrin is administered in solution containing 2 mg/ml optionally in 5% mannitol, USP. Dosages of about 1.0 or 2.0 mg/kg to about 4.0 or 5.0 mg/kg, preferably 3.0 mg/kg may be employed, up to a maximum tolerated dose that was determined in one study to be 5.2 mg/kg. The texaphyrin is administered by intravenous injection, followed by a waiting period of from as little as several minutes or about 3 hours to as long as about 72 or 96 hours (depending on the treatment being effected) to facilitate intracellular uptake and clearance from the plasma and extracellular matrix prior to the administration of the sonodynamic agent. The co-administration of a sedative (e.g., benzodiazapenes) and narcotic analgesic are sometimes recommended prior to topical (as opposed to intravascular) light treatment. Topical administration. of Emla cream (lidocaine, 2.5% and prilocaine, 2.5%) under an occlusive dressing and other intradermal, subcutaneous and topical anesthetics may also be employed as necessary to reduce discomfort. Similar patient comfort considerations may apply in sonodynamic therapy, as will be apparent to the treating physician. Subsequent treatments can be provided after suitable time interval, currently approximately 21 days. […]

## CC(=O)[O-].CC(=O)[O-].CCc1c(CC)c2cc3nc(cnc4cc(OCCOCCOCCOC)c(OCCOCCOCCOC)cc4ncc4nc(cc1[n-]2)C(CCCO)=C4C)C(C)=C3CCCO.O.[Gd+3] [Gd-Tex, Gadolinium Texaphyrin]
Colon 26 tumor cells
  comparison of tumor-bearing and control kidneys (histologic examination): substantially the same
[1]
  Amount of Cytoleucene Transported: 3.2 ± 0.4
[2]
  Fragmentation: 64 ± 4
[3]
  Viability: 42 ± 5
  potentiation of the cytotoxic effect of ultrasound: substantial potentiation

## CC(=O)[O-].CC(=O)[O-].CCc1c(CC)c2cc3nc(cnc4cc(OCCOCCOCCOC)c(OCCOCCOCCOC)cc4ncc4nc(cc1[n-]2)C(CCCO)=C4C)C(C)=C3CCCO.O.[Lu+3] [Lu-Tex, Lutetium Texaphyrin]
[4]
  maximum tolerated dose: 5.2 mg/kg
Colon 26 tumor cells
  comparison of tumor-bearing and control kidneys (histologic examination): substantially the same
[1]
  Amount of Cytoleucene Transported: 2.8 ± 0.3
[2]
  Fragmentation: 73 ± 6
[3]
  Viability: 24 ± 3
  potentiation of the cytotoxic effect of ultrasound: substantial potentiation

## yttrium texaphyrin
Colon 26 tumor cells
  comparison of tumor-bearing and control kidneys (histologic examination): substantially the same
